Several values for one entry are separate records, joined by “and”; a condition that tells them apart may be missing. Equal entries are not always repeated. Where two headings read alike, the source gives them in different places.
How the values were obtained:
[1] = Compound 2 single dose rat PK study; format: in vivo, male Sprague Dawley rats; details: for Vd: read-out: Vss
Protocol: A pharmacokinetic study of Compound 2 following a single intravenous or oral dose administration to male Sprague Dawley rats was conducted, the results of which are found in Table 5 and FIGS. 21-24.

[2] = system: Subjects with NAFLD or NASH; test: Treatment of NAFLD and NASH in humans; format: in vivo, human; details: 50 or 100 mg/day for 6 months
Protocol: Subjects with NAFLD or NASH are treated with doses of either 50 or 100 mg/day of compound 1 or 2 for 6 months. Subjects are permitted their usual other medications (e.g. antidiabetic medications such as metformin or […]) but not glitazones, PPAR agonists, OCA, or similar medications. The subjects are assessed before the study, and at intervals during the study, such as every 4 weeks during the study and 4 weeks after the last dose of compound 1 or 2, for safety and pharmacodynamic evaluations.
MRIs of the subjects' livers are taken every 4 weeks during the study and 4 weeks after completion of compound 1 or 2 dosing, to determine hepatic fat; and liver biopsies are taken before the study (to establish the diagnosis) and 4 weeks after completion of compound 1 or 2 dosing. At each visit, after a 12-hour fast, blood is drawn and urine collected; and a standard metabolic panel, complete blood count, and standard urinalysis are performed. Blood is analyzed for total cholesterol, HDL-C, LDL-C, VLDL-C, TGs, apoB, and liver transaminases. The subjects also maintain health diaries, which are reviewed at each visit.

[3] = male, Sprague Dawley, plasma, iv, 2 mg/kg, single iv dose 2 mg/kg, Mean of the 3 rats
[4] = male, Sprague Dawley, plasma, iv, 2 mg/kg, single iv dose 2 mg/kg, individual rats
[5] = male, Sprague Dawley, plasma, po, 5 mg/kg, single po dose 5 mg/kg, Mean of the 3 rats
[6] = male, Sprague Dawley, plasma, po, 5 mg/kg, single po dose 5 mg/kg, individual rats
[7] = single iv dose 2 mg/kg, individual rats, 2 mg/kg
[8] = single po dose 5 mg/kg, individual rats, 5 mg/kg

`CC(=O)N1Cc2[nH]nc(C(=O)N3CCC(c4ccc(F)c(F)c4C(F)(F)F)CC3)c2C1` [Compound 2, 1-(3-(4-(3,4-difluoro-2-(trifluoromethyl)phenyl)piperidine-1-carbonyl)-4,6-dihydropyrrolo[3,4-c]pyrazol-5(1H)-yl)ethan-1-one] gave an AUC(0-inf) [1, 3] of 5750 ng·h/mL, an AUC(0-t) [1, 3] of 5720 ng·h/mL and an MRT inf [1, 3] of 2.3 h. For the same molecule, the MRT last [1, 3] was 2.2 h, the clearance [1, 3] was 3.17 mL/min/kg and the half-life [1, 3] was 6.6 h. For the same molecule, the Tmax ([1]; male, Sprague Dawley, plasma, iv, 2 mg/kg, single iv dose 2 mg/kg, Mean of the 3 rats, first plasma collection time or observed time of highest plasma concentration) was 0.22 h, the Cmax ([1]; male, Sprague Dawley, plasma, iv, 2 mg/kg, single iv dose 2 mg/kg, Mean of the 3 rats, read-out: Cmax) was 2840 ng/mL and the Vd [1, 3] was 0.436 L/kg. The MRT inf [1, 4] was 2.1 h, the MRT last [1, 4] was 2 h and the half-life [1, 4] was 7.1 h. For the same molecule, the Cmax ([1]; male, Sprague Dawley, plasma, iv, 2 mg/kg, single iv dose 2 mg/kg, individual rats, read-out: Cmax) was 2920 ng/mL, the Vd [1, 4] was 0.421 L/kg and the AUC(0-inf) [1, 5] was 6410 ng·h/mL. It also gave an AUC(0-t) [1, 5] of 6370 ng·h/mL, an MRT inf [1, 5] of 4.8 h and an MRT last [1, 5] of 4.5 h. The Tmax [1, 5] was 0.5 h, the half-life [1, 5] was 8 h and the Cmax ([1]; male, Sprague Dawley, plasma, po, 5 mg/kg, single po dose 5 mg/kg, Mean of the 3 rats, read-out: Cmax) was 1600 ng/mL. The AUC(0-inf) [1, 6] was 5340 ng·h/mL, the AUC(0-t) [1, 6] was 5280 ng·h/mL and the MRT inf [1, 6] was 5 h. For the same molecule, the MRT last [1, 6] was 4.5 h, the Tmax [1, 6] was 0.5 h and the half-life [1, 6] was 10.9 h. For the same molecule, the Cmax ([1]; male, Sprague Dawley, plasma, po, 5 mg/kg, single po dose 5 mg/kg, individual rats, read-out: Cmax) was 1530 ng/mL, the AUCLAST [1, 7] was 5039 ng·h/mL and 8134 ng·h/mL and 3994 ng·h/mL and the Cl [1, 7] was 2.05 mL/min/kg. The Cmax [1, 7] was 3275 ng/mL and 2320 ng/mL, the MRTinf [1, 7] was 2.6 h and 2.3 h and the MRTlast [1, 7] was 2.5 h and 2.1 h. For the same molecule, the Vss [1, 7] was 0.315 L/kg and 0.572 L/kg, the t1/2 [1, 7] was 7.0 h and 5.7 h and the F ([1]; single po dose 5 mg/kg, Mean of the 3 rats) was 44.6%. The AUCLAST [1, 8] was 8392 ng·h/mL and 5435 ng·h/mL, the AUCinf [1, 8] was 8434 hr · ng/m1 and 5452 hr · ng/m1 and the Cmax [1, 8] was 2036 ng/mL and 1240 ng/mL. For the same molecule, the F [1, 8] was 37.2% and 58.7% and 38.0%, the MRTinf [1, 8] was 5.4 h and 4.1 h and the MRTlast [1, 8] was 5.1 h and 4.0 h. For the same molecule, the t1/2 [1, 8] was 7.7 h and 5.5 h and the “improvement in their disease, as manifested by MRI and liver biopsy” value [2] was “dose-related improvement”.
